Active and inactive are the calls of the source.
Assays:
Acinetobacter baumannii [1] = test: Antibacterial activity against carbapenem-resistant Acinetobacter baumannii BAA 1605 assessed as rifampicin MIC by measuring fractional inhibitory concentration incubated 24 hrs by checkerboard method relative to rifampicin alone; assay type: functional
Acinetobacter baumannii [2] = test: Antibacterial activity against Acinetobacter baumannii ATCC 17978 assessed as inhibition of bacterial growth incubated for 16 to 18 hrs by CLSI protocol based method; assay type: functional; settings: time 16-18 hrs, read-out: MIC100
Acinetobacter baumannii [3] = test: Antibacterial activity against multi-drug resistant Acinetobacter baumannii 5-032 assessed as inhibition of bacterial growth incubated for 16 to 18 hrs by CLSI protocol based method; assay type: functional; settings: time 16-18 hrs, read-out: MIC100
Acinetobacter baumannii [4] = test: Antibacterial activity against multi-drug resistant Acinetobacter baumannii clinical isolate 12 assessed as inhibition of bacterial growth incubated for 16 to 18 hrs by CLSI protocol based method; assay type: functional; settings: time 16-18 hrs, read-out: MIC100
Acinetobacter baumannii [5] = test: Synergistic antibacterial activity against carbapenem-resistant Acinetobacter baumannii BAA 1605 assessed as inhibition of bacterial growth by measuring tobramycin MIC incubated 24 hrs by checkerboard method; assay type: functional
Acinetobacter baumannii [6] = test: Antibacterial activity against carbapenem-resistant Acinetobacter baumannii BAA 1605 assessed as inhibition of bacterial growth by measuring fractional inhibitory concentration incubated 24 hrs in presence of levofloxacin by checkerboard method; assay type: functional
Acinetobacter baumannii [7] = test: Antibacterial activity against carbapenem-resistant Acinetobacter baumannii BAA 1605 assessed as inhibition of bacterial growth by measuring fractional inhibitory concentration incubated 24 hrs in presence of minocycline by checkerboard method; assay type: functional
Acinetobacter baumannii [8] = test: Antibacterial activity against carbapenem-resistant Acinetobacter baumannii BAA 1605 assessed as inhibition of bacterial growth incubated 24 hrs in presence of levofloxacin by checkerboard method; assay type: functional
Acinetobacter baumannii [9] = test: Antibacterial activity against multi-drug resistant Acinetobacter baumannii 5-109 assessed as inhibition of bacterial growth incubated for 16 to 18 hrs by CLSI protocol based method; assay type: functional; settings: time 16-18 hrs, read-out: MIC100
Acinetobacter baumannii [10] = test: Antibacterial activity against carbapenem-resistant Acinetobacter baumannii BAA 1605 assessed as tobramycin MIC by measuring fractional inhibitory concentration incubated 24 hrs by checkerboard method relative to tobramycin alone; assay type: functional
Acinetobacter baumannii [11] = test: Antibacterial activity against multi-drug resistant Acinetobacter baumannii clinical isolate 3 assessed as inhibition of bacterial growth incubated for 16 to 18 hrs by CLSI protocol based method; assay type: functional; settings: time 16-18 hrs, read-out: MIC100
Acinetobacter baumannii [12] = test: Antibacterial activity against multi-drug resistant Acinetobacter baumannii Naval-81 assessed as inhibition of bacterial growth incubated for 16 to 18 hrs by CLSI protocol based method; assay type: functional; settings: time 16-18 hrs, read-out: MIC100
Acinetobacter baumannii [13] = test: Antibacterial activity against multi-drug resistant Acinetobacter baumannii WL-136 assessed as inhibition of bacterial growth incubated for 16 to 18 hrs by CLSI protocol based method; assay type: functional; settings: time 16-18 hrs, read-out: MIC100
Pseudomonas aeruginosa = test: Antibacterial activity against Pseudomonas aeruginosa ATCC 27853 assessed as inhibition of bacterial growth incubated for 16 to 18 hrs by CLSI protocol based method; assay type: functional; settings: time 16-18 hrs, read-out: MIC100
Acinetobacter baumannii [14] = test: Antibacterial activity against multi-drug resistant Acinetobacter baumannii clinical isolate 5 assessed as inhibition of bacterial growth incubated for 16 to 18 hrs by CLSI protocol based method; assay type: functional; settings: time 16-18 hrs, read-out: MIC100
Acinetobacter baumannii [15] = test: Synergistic antibacterial activity against carbapenem-resistant Acinetobacter baumannii BAA 1605 assessed as reduction in bacterial growth measured within 24 hrs in presence of tobramycin by time-kill kinetics analysis; assay type: functional, organism-based
Acinetobacter baumannii [16] = test: Antibacterial activity against multi-drug resistant Acinetobacter baumannii NR-17777 assessed as inhibition of bacterial growth incubated for 16 to 18 hrs by CLSI protocol based method; assay type: functional; settings: time 16-18 hrs, read-out: MIC100
Acinetobacter baumannii [17] = test: Synergistic antibacterial activity against carbapenem-resistant Acinetobacter baumannii BAA 1605 assessed as inhibition of bacterial growth by measuring fractional inhibitory concentration incubated 24 hrs in presence of tobramycin by checkerboard method; assay type: functional
Acinetobacter baumannii [18] = test: Antibacterial activity against multi-drug resistant Acinetobacter baumannii clinical isolate 11 assessed as inhibition of bacterial growth incubated for 16 to 18 hrs by CLSI protocol based method; assay type: functional; settings: time 16-18 hrs, read-out: MIC100
Acinetobacter baumannii [19] = test: Antibacterial activity against multi-drug resistant Acinetobacter baumannii clinical isolate 4 assessed as inhibition of bacterial growth incubated for 16 to 18 hrs by CLSI protocol based method; assay type: functional; settings: time 16-18 hrs, read-out: MIC100
Acinetobacter baumannii [20] = test: Antibacterial activity against multi-drug resistant Acinetobacter baumannii clinical isolate 2 assessed as inhibition of bacterial growth incubated for 16 to 18 hrs by CLSI protocol based method; assay type: functional; settings: time 16-18 hrs, read-out: MIC100
Acinetobacter baumannii [21] = test: Antibacterial activity against carbapenem-resistant Acinetobacter baumannii BAA 1605 assessed as inhibition of bacterial growth by measuring rifampicin MIC incubated 24 hrs by checkerboard method; assay type: functional
Acinetobacter baumannii [22] = test: Antibacterial activity against multi-drug resistant Acinetobacter baumannii Naval-18 assessed as inhibition of bacterial growth incubated for 16 to 18 hrs by CLSI protocol based method; assay type: functional; settings: time 16-18 hrs, read-out: MIC100
Acinetobacter baumannii [23] = test: Antibacterial activity against carbapenem-resistant Acinetobacter baumannii BAA 1605 assessed as inhibition of bacterial growth by measuring fractional inhibitory concentration incubated 24 hrs in presence of polymyxin B by checkerboard method; assay type: functional
Escherichia coli = test: Antibacterial activity against Escherichia coli ATCC 25922 assessed as inhibition of bacterial growth incubated for 16 to 18 hrs by CLSI protocol based method; assay type: functional; settings: time 16-18 hrs, read-out: MIC100
Acinetobacter baumannii [24] = test: Antibacterial activity against multi-drug resistant Acinetobacter baumannii clinical isolate 8 assessed as inhibition of bacterial growth incubated for 16 to 18 hrs by CLSI protocol based method; assay type: functional; settings: time 16-18 hrs, read-out: MIC100
Acinetobacter baumannii [25] = test: Antibacterial activity against multi-drug resistant Acinetobacter baumannii 5-189 assessed as inhibition of bacterial growth incubated for 16 to 18 hrs by CLSI protocol based method; assay type: functional; settings: time 16-18 hrs, read-out: MIC100
Klebsiella pneumoniae = test: Antibacterial activity against Klebsiella pneumoniae BAA 1705 assessed as inhibition of bacterial growth incubated for 16 to 18 hrs by CLSI protocol based method; assay type: functional; settings: time 16-18 hrs, read-out: MIC100
Acinetobacter baumannii [26] = test: Antibacterial activity against carbapenem-resistant Acinetobacter baumannii BAA 1605 assessed as inhibition of bacterial growth incubated 24 hrs in presence of minocycline by checkerboard method; assay type: functional
Acinetobacter baumannii [27] = test: Antibacterial activity against carbapenem-resistant Acinetobacter baumannii BAA 1605 assessed as inhibition of bacterial growth incubated 24 hrs in presence of polymyxin B by checkerboard method; assay type: functional
Acinetobacter baumannii [28] = test: Antibacterial activity against multi-drug resistant Acinetobacter baumannii Naval-17 assessed as inhibition of bacterial growth incubated for 16 to 18 hrs by CLSI protocol based method; assay type: functional; settings: time 16-18 hrs, read-out: MIC100
Acinetobacter baumannii [29] = test: Antibacterial activity against carbapenem-resistant Acinetobacter baumannii BAA 1605 assessed as inhibition of bacterial growth by measuring fractional inhibitory concentration incubated 24 hrs in presence of amikacin by checkerboard method; assay type: functional
Acinetobacter baumannii [30] = test: Antibacterial activity against carbapenem-resistant Acinetobacter baumannii BAA 1605 assessed as reduction in bacterial growth incubated for 24 hrs by time-kill kinetics analysis; assay type: functional, organism-based
[31] = Selectivity index, ratio of CC50 for cytotoxicity against African green monkey VERO cells to MIC for antibacterial activity against carbapenem-resistant Acinetobacter baumannii BAA 1605 assessed as inhibition of bacterial growth; assay type: toxicity, cell-based; settings: read-out: Selectivity Index
Acinetobacter baumannii [32] = test: Antibacterial activity against carbapenem-resistant Acinetobacter baumannii BAA 1605 assessed as amikacin MIC by measuring fractional inhibitory concentration incubated 24 hrs by checkerboard method relative to amikacin alone; assay type: functional
Staphylococcus aureus = test: Antibacterial activity against Staphylococcus aureus ATCC 29213 assessed as inhibition of bacterial growth incubated for 16 to 18 hrs by CLSI protocol based method; assay type: functional; settings: time 16-18 hrs, read-out: MIC100
Acinetobacter baumannii [33] = test: Antibacterial activity against carbapenem-resistant Acinetobacter baumannii BAA 1605 assessed as inhibition of bacterial growth by measuring fractional inhibitory concentration incubated 24 hrs in presence of rifampicin by checkerboard method; assay type: functional

O=C(CCN1C(=O)c2cccc3cccc(c23)C1=O)NNc1ccc(Br)cc1
0.5 µg/mL: MIC (Acinetobacter baumannii [2]) | MIC (Acinetobacter baumannii [3]) | MIC (Acinetobacter baumannii [4]) | MIC (Acinetobacter baumannii [9]) | MIC (Acinetobacter baumannii [12]) | MIC (Acinetobacter baumannii [13]) | MIC (Acinetobacter baumannii [16]) | MIC (Acinetobacter baumannii [19]) | MIC (Acinetobacter baumannii [20]) | MIC (Acinetobacter baumannii [22]) | MIC (Acinetobacter baumannii [24]) | MIC (Acinetobacter baumannii [25])
1: FIC (Acinetobacter baumannii [6]) | FIC (Acinetobacter baumannii [7])
0.25: FIC (Acinetobacter baumannii [10]) | FIC (Acinetobacter baumannii [17]) | FIC (Acinetobacter baumannii [23]) | FIC (Acinetobacter baumannii [29])
inactive: Activity (Acinetobacter baumannii [30])
2 µg/mL: MIC (Acinetobacter baumannii [21])
0.5: FIC (Acinetobacter baumannii [1]) | FIC (Acinetobacter baumannii [32]) | FIC (Acinetobacter baumannii [33])
active: Activity (Acinetobacter baumannii [15])
> 200: selectivity ratio [31]
> 64 µg/mL: MIC (Pseudomonas aeruginosa) | MIC (Escherichia coli) | MIC (Klebsiella pneumoniae) | MIC (Staphylococcus aureus)
0.25 µg/mL: MIC (Acinetobacter baumannii [11]) | MIC (Acinetobacter baumannii [27])
4 µg/mL: MIC (Acinetobacter baumannii [18])
1 µg/mL: MIC (Acinetobacter baumannii [5]) | MIC (Acinetobacter baumannii [8]) | MIC (Acinetobacter baumannii [14]) | MIC (Acinetobacter baumannii [26]) | MIC (Acinetobacter baumannii [28])

Source: ChEMBL document CHEMBL6134788, “Development of naphthalimide hydrazide derivatives as potent antibacterial agents against carbapenem-resistant A. baumannii” (RSC Med Chem, 2024)
